Structures can show the parent of a compound that is named as a salt.
Target: human recombinant KAT-II (Homo sapiens (Human), UniProt Q8N5Z0)
Assay: KAT-II inhibitory test
Assay type: biochemical
Conditions: 3.0 μmol/L kynurenine, 37° C., 1 hr, pH 8.0; kynurenic acid quantified by HPLC
Procedure, shortened: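 E. coli-expressed His/MBP-tagged human KAT-II (2.0 ng/μL) incubated with 3.0 μmol/L kynurenine and 10 μmol/L pyridoxal phosphate in Tris-acetate pH 8.0, 1 hr at 37 °C. Reaction stopped with TCA. Kynurenic acid quantified by reversed-phase HPLC with fluorescence detection (ex 354/em 460 nm), duplicate at each concentration.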

Chain of human recombinant KAT-II (Q8N5Z0 30-425): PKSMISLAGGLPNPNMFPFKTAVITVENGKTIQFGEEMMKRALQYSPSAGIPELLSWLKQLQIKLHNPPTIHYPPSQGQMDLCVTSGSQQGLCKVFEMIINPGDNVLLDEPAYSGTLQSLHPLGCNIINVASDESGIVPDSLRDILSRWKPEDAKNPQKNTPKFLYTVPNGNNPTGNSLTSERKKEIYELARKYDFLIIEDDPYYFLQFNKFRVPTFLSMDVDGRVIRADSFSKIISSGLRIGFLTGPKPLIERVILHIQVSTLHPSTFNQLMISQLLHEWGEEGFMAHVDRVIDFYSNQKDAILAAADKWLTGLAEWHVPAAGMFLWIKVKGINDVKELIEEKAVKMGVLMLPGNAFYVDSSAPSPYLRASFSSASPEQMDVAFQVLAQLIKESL

Structure (SMILES) | IC50 [nM]
CCn1c(C(F)F)nc2sc(N3CCC[C@@H]3C(=O)NCc3ccc4c(c3)OCO4)nc2c1=O [Example 304, (R)-N-[(benzo[1,3]dioxo-5-yl)methyl]-1-(5-difluoromethyl-6-ethyl-7-oxo-6,7-dihydro-[1,3]thiazolo[5,4-d]pyrimidin-2-yl)pyrrolidine-2-carboxamide] | 21
CCn1c(C(F)F)nc2sc(N3CCC[C@@H]3C(=O)NCc3ccco3)nc2c1=O [Example 307, (R)-1-(5-difluoromethyl-6-ethyl-7-oxo-6,7-dihydro-[1,3]thiazolo[5,4-d]pyrimidin-2-yl)-N-[(furan-2-yl)methyl]pyrrolidine-2-carboxamide] | 120
CCn1c(C(F)F)nc2sc(N3CCC[C@@H]3C(=O)NCc3cccs3)nc2c1=O [Example 309, (R)-1-(5-difluoromethyl-6-ethyl-7-oxo-6,7-dihydro-[1,3]thiazolo[5,4-d]pyrimidin-2-yl)-N-[(thiophen-2-yl)methyl]pyrrolidine-2-carboxamide] | 61
CCn1c(C(F)F)nc2sc(N3CCC[C@@H]3C(=O)NCc3cc(C)on3)nc2c1=O [Example 311, (R)-1-(5-difluoromethyl-6-ethyl-7-oxo-6,7-dihydro-[1,3]thiazolo[5,4-d]pyrimidin-2-yl)-N-[(5-methyl-isoxazol-3-yl)methyl]pyrrolidine-2-carboxamide] | 340
CCn1c(C(F)F)nc2sc(N3CCC[C@@H]3C(=O)NCc3cc(C)nn3C)nc2c1=O [Example 313, (R)-1-(5-difluoromethyl-6-ethyl-7-oxo-6,7-dihydro-[1,3]thiazolo[5,4-d]pyrimidin-2-yl)-N-[(2,5-dimethyl-2H-pyrazol-3-yl)methyl]pyrrolidine-2-carboxamide] | 1100
CCn1c(C(F)F)nc2sc(N3CCC[C@@H]3C(=O)NCc3nccs3)nc2c1=O [Example 314, (R)-1-(5-difluoromethyl-6-ethyl-7-oxo-6,7-dihydro-[1,3]thiazolo[5,4-d]pyrimidin-2-yl)-N-[(1,3-thiazol-2-yl)methyl]pyrrolidine-2-carboxamide] | 610
Cn1c(CN2CCOCC2)nc2sc(N3CCC[C@@H]3C(=O)NCc3ccccc3)nc2c1=O [Example 322, (R)-N-benzyl-1-{6-methyl-5-[(morpholin-4-yl)methyl]-7-oxo-6,7-dihydro[1,3]thiazolo[5,4-d]pyrimidin-2-yl}pyrrolidine-2-carboxamide] | 20
Cn1c(CN2Cc3ccccc3C2)nc2sc(N3CCC[C@@H]3C(=O)NCc3ccccc3)nc2c1=O [Example 328, (R)-N-benzyl-1-{5-[(1,3-dihydro-2H-isoindol-2-yl)methyl]-6-methyl-7-oxo-6,7-dihydro[1,3]thiazolo[5,4-d]pyrimidin-2-yl}pyrrolidine-2-carboxamide] | 17
Cn1c(N2CCCCC2)nc2sc(N3CCC[C@@H]3C(=O)NCc3ccccc3)nc2c1=O [Example 337, (R)-N-benzyl-1-[6-methyl-7-oxo-5-(piperidin-1-yl)-6,7-dihydro[1,3]thiazolo[5,4-d]pyrimidin-2-yl]pyrrolidine-2-carboxamide] | 4.4
Cn1c(N2CCOCC2)nc2sc(N3CCC[C@@H]3C(=O)NCc3ccccc3)nc2c1=O [Example 339, (R)-N-benzyl-1-[6-methyl-5-(morpholin-4-yl)-7-oxo-6,7-dihydro[1,3]thiazolo[5,4-d]pyrimidin-2-yl]pyrrolidine-2-carboxamide] | 7.9
COc1ccc(Cn2c(C(C)(C)F)nc3sc(N4CCC[C@@H]4C(=O)NCc4ccccc4)nc3c2=O)c(OC)c1 [Example 414, (R)-N-benzyl-1-[6-(2,4-dimethoxybenzyl)-5-(2-fluoropropan-2-yl)-7-oxo-6,7-dihydro[1,3]thiazolo[5,4-d]pyrimidin-2-yl]pyrrolidine-2-carboxamide] | 43
CC(C)c1nc2sc(N(C)[C@H](C)C(=O)NCc3ccccc3)nc2c(=O)[nH]1 [Example 486, (R)-N-benzyl-2-{N′-[5-(propan-2-yl)-7-oxo-6,7-dihydro[1,3]thiazolo[5,4-d]pyrimidin-2-yl]-N′-methylamino}propionamide] | 15
O=C(NCc1ccccc1)[C@H]1CCCN1c1nc2c(=O)[nH]c(-c3ccccc3F)nc2s1 [Example 489, (R)-N-benzyl-1-[5-(2-fluorophenyl)-7-oxo-6,7-dihydro[1,3]thiazolo[5,4-d]pyrimidin-2-yl]pyrrolidine-2-carboxamide] | 6
C[C@@H](NC(=O)[C@H]1CCCN1c1nc2c(=O)[nH]c(-c3ccc(F)cc3F)nc2s1)c1ccccc1 [Example 499, (R)-1-[5-(2,4-difluorophenyl)-7-oxo-6,7-dihydro[1,3]thiazolo[5,4-d]pyrimidin-2-yl]N-((R)-1-phenylethyl)pyrrolidine-2-carboxamide] | 7.1

Results, then the molecule that gave them:

IC50 [nM] | Structure (SMILES)
2600 | CCn1c(C(F)F)nc2sc(N3CCC[C@@H]3C(=O)N[C@@H](c3ccccc3)C(F)(F)F)nc2c1=O [Example 301, (R)-1-(5-difluoromethyl-6-ethyl-7-oxo-6,7-dihydro-[1,3]thiazolo[5,4-d]pyrimidin-2-yl)pyrrolidine-N-((S)-2,2,2-trifluoro-1-phenylethyl)-2-carboxamide]
70 | COC1CN(Cc2nc3sc(N4CCC[C@@H]4C(=O)NCc4ccccc4)nc3c(=O)n2C)C1 [Example 321, (R)-N-benzyl-1-{5-[(3-methoxyazetidin-1-yl)methyl]-6-methyl-7-oxo-6,7-dihydro[1,3]thiazolo[5,4-d]pyrimidin-2-yl}pyrrolidine-2-carboxamide]
78 | CN(C)Cc1nc2sc(N3CCC[C@@H]3C(=O)NCc3ccccc3)nc2c(=O)n1C [Example 323, (R)-N-benzyl-1-{5-[(N′,N′-dimethylamino)methyl]-6-methyl-7-oxo-6,7-dihydro[1,3]thiazolo[5,4-d]pyrimidin-2-yl}pyrrolidine-2-carboxamide]
49 | CN(Cc1nc2sc(N3CCC[C@@H]3C(=O)NCc3ccccc3)nc2c(=O)n1C)CC(F)(F)F [Example 333, (R)-N-benzyl-1-[6-methyl-5-{[N′-methyl-N′-(2,2,2-trifluoroethyl)amino]methyl}-7-oxo-6,7-dihydro[1,3]thiazolo[5,4-d]pyrimidin-2-yl]pyrrolidine-2-carboxamide]
5.6 | CN(C)c1nc2sc(N3CCC[C@@H]3C(=O)NCc3ccccc3)nc2c(=O)n1C [Example 335, (R)-N-benzyl-1-[5-(N′,N′-dimethylamino)-6-methyl-7-oxo-6,7-dihydro[1,3]thiazolo[5,4-d]pyrimidin-2-yl]pyrrolidine-2-carboxamide]
11 | CC(C)Nc1nc2sc(N3CCC[C@@H]3C(=O)NCc3ccccc3)nc2c(=O)n1C [Example 341, (R)-N-benzyl-1-{6-methyl-7-oxo-5-[(propan-2-yl)amino]-6,7-dihydro[1,3]thiazolo[5,4-d]pyrimidin-2-yl}pyrrolidine-2-carboxamide]
8.7 | Cn1c(-c2ccccc2F)nc2sc(N3CCC[C@@H]3C(=O)NCc3ccccc3)nc2c1=O [Example 345, (R)-N-benzyl-1-[5-(2-fluorophenyl)-6-methyl-7-oxo-6,7-dihydro[1,3]thiazolo[5,4-d]pyrimidin-2-yl]pyrrolidine-2-carboxamide]
120 | CNCCn1c(C(F)(F)F)nc2sc(N3CCC[C@@H]3C(=O)NCc3ccccc3)nc2c1=O [Example 363, (R)-N-benzyl-1-[6-(2-methylaminoethyl)-7-oxo-5-trifluoromethyl-6,7-dihydro[1,3]thiazolo[5,4-d]pyrimidin-2-yl]pyrrolidine-2-carboxamide]
150 | CN1CCC(Cn2c(C(F)(F)F)nc3sc(N4CCC[C@@H]4C(=O)NCc4ccccc4)nc3c2=O)CC1 [Example 366, (R)-N-benzyl-1-{6-[(1-methylpiperidin-4-yl)methyl]-7-oxo-5-trifluoromethyl-6,7-dihydro[1,3]thiazolo[5,4-d]pyrimidin-2-yl}pyrrolidine-2-carboxamide]
39 | CN(C)CCn1c(C(F)(F)F)nc2sc(N3CCC[C@@H]3C(=O)NCc3ccccc3)nc2c1=O [Example 372, (R)-N-benzyl-1-{6-[2-(N′,N′-dimethylamino)ethyl]-7-oxo-5-trifluoromethyl-6,7-dihydro[1,3]thiazolo[5,4-d]pyrimidin-2-yl}pyrrolidine-2-carboxamide]
8 | CN(CCn1c(C(F)(F)F)nc2sc(N3CCC[C@@H]3C(=O)NCc3ccccc3)nc2c1=O)CC(F)(F)F [Example 373, (R)-N-benzyl-1-[6-{2-[N′-methyl-N′-(2,2,2-trifluoroethyl)amino]ethyl}-7-oxo-5-trifluoromethyl-6,7-dihydro[1,3]thiazolo[5,4-d]pyrimidin-2-yl]pyrrolidine-2-carboxamide hydrochloride]
14 | C[C@H](c1nc2sc(N3CCC[C@@H]3C(=O)NCc3ccccc3)nc2c(=O)n1C)N(C)C [Example 376, (R)-N-benzyl-1-{5-[(R)-1-(N′,N′-dimethylamino)ethyl]-6-methyl-7-oxo-6,7-dihydro[1,3]thiazolo[5,4-d]pyrimidin-2-yl}pyrrolidine-2-carboxamide]
76 | O=C(NCc1ccccc1)[C@H]1CCCN1c1nc2c(=O)n(CCO)c(C(F)(F)F)nc2s1 [Example 396, (R)-N-benzyl-1-[6-(2-hydroxyethyl)-7-oxo-5-trifluoromethyl-6,7-dihydro[1,3]thiazolo[5,4-d]pyrimidin-2-yl]pyrrolidine-2-carboxamide]
370 | CN(C)CCOc1nc2sc(N3CCC[C@@H]3C(=O)NCc3ccccc3)nc2c(=O)n1C [Example 406, (R)-N-benzyl-1-{5-[2-(N′,N′-dimethylamino)ethoxy]-6-methyl-7-oxo-6,7-dihydro[1,3]thiazolo[5,4-d]pyrimidin-2-yl}pyrrolidine-2-carboxamide]
15 | CC(=O)c1nc2sc(N3CCC[C@@H]3C(=O)NCc3ccccc3)nc2c(=O)n1C [Example 411, (R)-1-(5-acetyl-6-methyl-7-oxo-6,7-dihydro[1,3]thiazolo[5,4-d]pyrimidin-2-yl)-N-benzylpyrrolidine-2-carboxamide]

Reference: patent US10065972B2, “Bicyclic or tricyclic heterocyclic compound” (MITSUBISHI TANABE PHARMA CORPORATION, priority 2014, dated 2018)
